Laboratory results from ChEMBL document CHEMBL5058564, “EUbOPEN Chemogenomics Library 2 (Incucyte)” (2022).
Where a SMILES comes first, the peptide text is derived from it. [ ]: non-standard residue; d: D form. Arg(Me) = CNC(=N)NCCC[C@H](N)C(=O)O; d3Pal = N[C@H](Cc1cccnc1)C(=O)O; azaGly = NNC(=O)O

Experiments:
Format in all cases: toxicity, cell-based
HEK-293T = assay: Incucyte cell viability with HEK293T; conditions: human, 10 µM, compound concentration 10 uM
Fibroblast = assay: Incucyte cell viability with human fibroblast; conditions: 10 µM, compound concentration 10 uM
U2OS = assay: Incucyte cell viability with U2OS; conditions: human, 10 µM, compound concentration 10 uM
[1] = 0 h, replicate number 2, timepoint 0 hours
[2] = 6 h, replicate number 2, timepoint 6 hours
[3] = 12 h, replicate number 1, timepoint 12 hours
[4] = 12 h, replicate number 2, timepoint 12 hours
[5] = 18 h, replicate number 1, timepoint 18 hours
[6] = 24 h, replicate number 1, timepoint 24 hours
[7] = 24 h, replicate number 2, timepoint 24 hours
[8] = 0 h, replicate number 1, timepoint 0 hours
[9] = 6 h, replicate number 1, timepoint 6 hours
[10] = 18 h, replicate number 2, timepoint 18 hours
Further: unitless GR value; below 1 slowed growth and below 0 cell loss.

SMILES	Growth Rate (HEK-293T; [1])	Growth Rate (HEK-293T; [3])	Growth Rate (HEK-293T; [4])	Growth Rate (HEK-293T; [5])	Growth Rate (HEK-293T; [6])	Growth Rate (HEK-293T; [7])	Growth Rate (Fibroblast; [1])	Growth Rate (Fibroblast; [9])	Growth Rate (Fibroblast; [3])	Growth Rate (Fibroblast; [4])	Growth Rate (Fibroblast; [5])	Growth Rate (Fibroblast; [10])	Growth Rate (Fibroblast; [6])	Growth Rate (Fibroblast; [7])	Growth Rate (U2OS; [1])	Growth Rate (HEK-293T; [9])	Growth Rate (HEK-293T; [10])	Growth Rate (Fibroblast; [2])	Growth Rate (U2OS; [2])	Growth Rate (U2OS; [10])	other results
CC(C)c1c(NC(=O)Nc2ccc(Cl)cc2)c(=O)n(-c2ccccc2)n1C	0.92	0.65	0.96	0.55	0.53	0.96	0.39	0.31	0.35	0.54	0.76	0.54	0.69	0.44	-0.97	–	–	–	–	–	Growth Rate (HEK-293T; [2]): 0.74; Growth Rate (Fibroblast; [8]): 0.29; Growth Rate (U2OS; [8]): -0.9
CCCCCCCCCCCCCCC[C@@H](O)[C@@H](N)COP(=O)(O)O	0.71	0.48	0.76	0.51	0.63	0.74	0.12	-0.14	0.44	0.66	0.43	0.7	0.23	0.73	–	0.25	0.88	0.42	–	–	Growth Rate (U2OS; [3]): 0.64
O=C(O)Cc1ccccc1Nc1c(Cl)cccc1Cl [DICLOFENAC]	0.45	–	–	–	–	–	0.28	0.86	–	–	–	–	–	–	-1	0.97	–	–	0.98	–	Growth Rate (Fibroblast; [8]): 0.78
CNC(=N)NCCC[C@H](NC(=O)[C@H](CC(C)C)NC(=O)NNC(=O)[C@H](Cc1ccccc1)NC(=O)[C@H](CO)NC(=O)[C@H](CC(N)=O)NC(=O)[C@@H](Cc1cccnc1)NC(=O)[C@H](N)Cc1ccc(O)cc1)C(=O)NCC(N)=O [KISS1-543] (H-[dY][d3Pal]NSF[azaGly]L[Arg(Me)]G-NH2)	0.71	0.68	–	0.68	0.71	0.84	0.66	–	0.41	–	0.5	0.76	0.46	0.72	0.72	0.69	–	0.8	–	0.99	Growth Rate (HEK-293T; [8]): 0.75; Growth Rate (U2OS; [9]): 0.84; Growth Rate (U2OS; [4]): 0.89; Growth Rate (U2OS; [7]): 1
CC(=O)O[C@H]1C(=O)[C@@]2(C)[C@H]([C@H](OC(=O)c3ccccc3)[C@]3(O)C[C@H](OC(=O)[C@H](O)[C@@H](NC(=O)c4ccccc4)c4ccccc4)C(C)=C1C3(C)C)[C@]1(OC(C)=O)CO[C@@H]1C[C@@H]2O [PACLITAXEL]	–	-0.24	-0.18	-0.17	-0.03	-0.1	–	-0.93	-0.65	-0.32	-0.57	0.02	-0.4	0.16	0.29	-0.58	-0.18	-0.73	-0.14	-0.14	Growth Rate (HEK-293T; [2]): -0.59; Growth Rate (U2OS; [8]): -0.24; Growth Rate (U2OS; [9]): 0.37; Growth Rate (U2OS; [3]): 0.12; Growth Rate (U2OS; [4]): -0.2; Growth Rate (U2OS; [5]): 0.09; Growth Rate (U2OS; [6]): 0.07; Growth Rate (U2OS; [7]): -0.09
CC(C)n1cnc2c(Nc3cccc(Cl)c3)nc(N[C@H]3CCCC[C@@H]3N)nc21	–	-0.51	-0.69	-0.35	-0.25	-0.39	–	0.31	0.73	0.36	0.33	–	0.41	–	–	-0.84	-0.48	-0.31	0.4	-0.02	Growth Rate (HEK-293T; [2]): -0.89; Growth Rate (U2OS; [9]): -0.04; Growth Rate (U2OS; [3]): -0.12; Growth Rate (U2OS; [4]): 0.04; Growth Rate (U2OS; [5]): 0.03; Growth Rate (U2OS; [6]): 0.06; Growth Rate (U2OS; [7]): 0.05
CC(C)NCC(O)COc1cccc2[nH]ccc12 (stereo not given) [PINDOLOL]	-0.05	–	–	0.97	0.82	0.98	-0.46	–	0.78	–	0.94	–	0.9	–	0.98	0.7	0.94	–	–	–	Growth Rate (Fibroblast; [8]): 0.32; Growth Rate (U2OS; [8]): -0.36; Growth Rate (U2OS; [9]): 0.52; Growth Rate (U2OS; [3]): 0.93; Growth Rate (U2OS; [5]): 0.88; Growth Rate (U2OS; [6]): 0.7
Cc1cnc(-c2cc(N3CCN(C(=O)CCS(C)(=O)=O)CC3)ncc2Cl)c(C)c1	0.96	–	–	–	–	–	–	0.66	0.76	0.17	0.94	0.71	0.94	–	–	–	–	0.05	0.63	0.92	Growth Rate (HEK-293T; [8]): 0.65
C[C@@H]1C[C@H]2[C@@H]3CCC4=CC(=O)C=C[C@]4(C)[C@@]3(F)[C@@H](O)C[C@]2(C)[C@@]1(O)C(=O)CO [DEXAMETHASONE]	–	0.98	–	0.86	0.7	0.99	–	0.88	–	–	–	–	–	–	-1	–	–	–	0.65	0.95	Growth Rate (HEK-293T; [8]): 0.4; Growth Rate (Fibroblast; [8]): 0.73; Growth Rate (U2OS; [8]): 0.07
CCS(=O)(=O)Nc1ccc(Oc2ccc(F)cc2F)c(-c2cn(C)c(=O)c3[nH]ccc23)c1 [MIVEBRESIB]	–	–	0.78	0.75	0.4	0.28	–	-0.16	–	–	–	–	–	–	-0.35	–	0.41	0.52	0.85	–	Growth Rate (U2OS; [7]): 0.95
CC(C)OC(=O)N1CCC(Oc2ncnc3c2cnn3-c2ccc(S(C)(=O)=O)cc2F)CC1	–	0.82	–	0.98	–	–	-0.13	0.15	0.04	0.61	0.38	0.58	0.47	0.69	-1	0.81	–	–	0.7	–	Growth Rate (Fibroblast; [8]): 0.77; Growth Rate (U2OS; [7]): 0.97
CC#C[C@@H](CC(=O)O)c1ccc(OCc2cccc(-c3ccc(C(F)(F)F)cc3)c2)cc1	–	–	0.95	0.65	0.68	–	–	0.66	–	0.23	–	0.02	0.66	0.31	–	–	0.93	-0.08	0.69	0.96	Growth Rate (HEK-293T; [2]): 0.55; Growth Rate (U2OS; [8]): 0.35; Growth Rate (U2OS; [4]): 0.96; Growth Rate (U2OS; [5]): 0.85
